Reference: patent US20260062426A1, “CYCLIN DEPENDENT KINASE DEGRADERS AND METHODS OF USE THEREOF” (Differentiated Therapeutics Inc, priority 2023, published 2026)

Tests used:
Format in all cases: cell-based
CDK2 = molecular target: T1, CDK2 (Homo sapiens, UniProt P24941); experiment: CDK2 HIBIT PQ (protein quantification), degradation; details: for CDK2 HIBIT PQ Max (%): Max = Maximum; for DC50: PQ = Protein Quantification
T1 construct: host or cells: HEK293
How it was run: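 DC50 and maximal degradation were derived from a HiBiT lytic readout in HEK293 cells carrying HiBiT-tagged CDK2. Cells were seeded in 384-well plates at 1.6×10^5 cells/well in 50 uL of DMEM with 10% FBS, incubated overnight at 37° C and 5% CO2, treated with compound for 6 hours, and then given 20 μL of HiBiT reagent with 20 minutes of shaking at room temperature before an EnVision reading. Wells with 0.1% DMSO served as the high control and wells with medium only as the low control.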

CDK9 = molecular target: T2, CDK9 (Homo sapiens, UniProt P50750); experiment: CDK9 HIBIT PQ (protein quantification), degradation; details: for Dmax: Max = Maximum; for DC50: PQ = Protein Quantification
T2 construct: host or cells: HEK293
T2 sequence (P50750 whole entry): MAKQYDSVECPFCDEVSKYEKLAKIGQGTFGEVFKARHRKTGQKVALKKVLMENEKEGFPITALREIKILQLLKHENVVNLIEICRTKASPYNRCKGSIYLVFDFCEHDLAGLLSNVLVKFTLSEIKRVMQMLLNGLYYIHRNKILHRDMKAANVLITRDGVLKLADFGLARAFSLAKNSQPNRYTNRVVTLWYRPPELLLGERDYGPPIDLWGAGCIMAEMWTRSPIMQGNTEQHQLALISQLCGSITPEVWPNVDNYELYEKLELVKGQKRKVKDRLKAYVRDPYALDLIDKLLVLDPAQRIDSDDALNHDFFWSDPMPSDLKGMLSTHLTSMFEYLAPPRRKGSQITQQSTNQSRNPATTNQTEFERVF
How it was run: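 HEK293 cells bearing HiBiT-tagged CDK9 were cultured in DMEM with 10% FBS, plated into 384-well plates at 1.6×10^5 cells/well in 50 uL, and left overnight at 37° C and 5% CO2. A HiBiT assay measured CDK9 protein after compound treatment, with 0.1% DMSO-treated cells as the high control and culture medium alone as the low control. These readings gave the maximal degradation, Dmax and DC50.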

CCNE1 = molecular target: T3, CCNE1 (Homo sapiens, UniProt P24864+P24941); experiment: CCNE1 HIBIT PQ (protein quantification), degradation; details: for CCNE1 HIBIT PQ Max (%): Max = Maximum; for DC50: PQ = Protein Quantification
T3 construct: host or cells: HEK293
How it was run: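 Compound was applied for 6 hours to HEK293 cells expressing HiBiT-tagged CCNE1, which had been seeded overnight in 384-well plates at 1.6×10⁵ cells/well. CCNE1 protein was then read by HiBiT assay against a high control of 0.1% DMSO-treated cells and a low control of medium only. These readings gave DC50 and maximal degradation.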

| CDK2 HIBIT PQ Max (%) (CDK2) | DC50 (CDK2) | Dmax (CDK9) | DC50 (CDK9) | CCNE1 HIBIT PQ Max (%) (CCNE1) | DC50 (CCNE1) | SMILES |
| --- | --- | --- | --- | --- | --- | --- |
| 85% | 0.42 nM | 53% | 6.6 nM | 44% |  | CC(C)Oc1c(-c2cn[nH]c2)ncn2nc(Nc3ccc(S(=O)(=O)c4cccc(CN5CCC(c6cccc7c6n(C)c(=O)n7C6CCC(=O)NC6=O)CC5)c4)cc3F)nc12 (racemic) [Compound 13] |
| 70% | 0.24 nM | 74% | 1.12 nM | 33% |  | CC(C)Oc1c(-c2cn[nH]c2)ncn2nc(Nc3ccc(S(=O)(=O)N4CCC(CN5CCC(c6cccc7c6n(C)c(=O)n7C6CCC(=O)NC6=O)CC5)CC4)cc3F)nc12 (racemic) [Compound 14, rac-(R)-3-(4-(1-((1-((3-fluoro-4-((8-isopropoxy-7-(1H-pyrazol-4-yl)-[1,2,4]triazolo[1,5-c]pyrimidin-2-yl)amino)phenyl)sulfonyl)piperidin-4-yl)methyl)piperidin-4-yl)-3-methyl-2-oxo-2,3-dihydro-1H-benzo[d]imidazol-1-yl)piperidine-2,6-dione] |
| 91% | < 0.152 nM | 94% | 0.52 nM | 79% | 0.21 nM | CC(C)Oc1c(-c2cn[nH]c2)ncn2nc(Nc3ccc(S(=O)(=O)N(C)CCCN4CCC(c5ccc6c(c5)n(C)c(=O)n6[C@H]5CCC(=O)NC5=O)CC4)cc3F)nc12 (racemic) [Compound 16] |
| 91% | 0.26 nM | 77% | 2.7 nM | 83% | 0.94 nM | CC(C)Oc1c(-c2cn[nH]c2)ncn2nc(Nc3ccc(S(=O)(=O)N(C)CCCN4CCN(c5cccc6c5n(C)c(=O)n6C5CCC(=O)NC5=O)CC4)cc3F)nc12 (racemic) [Compound 17] |
| 90% | 0.6 nM | 87% | 2.19 nM | 82% | 0.64 nM | CC(C)Oc1c(-c2cn[nH]c2)ncn2nc(Nc3ccc(S(=O)(=O)N(C)CCCN4CCC(c5cccc6c5n(C)c(=O)n6C5CCC(=O)NC5=O)CC4)cc3F)nc12 (racemic) [Compound 18] |
| 90% | 0.87 nM | 77% | 3.8 nM | 85% | 0.77 nM | CC(C)Oc1c(-c2cn[nH]c2)ncn2nc(NC3CCN(S(=O)(=O)N(C)CCCN4CCC(c5cccc6c5n(C)c(=O)n6C5CCC(=O)NC5=O)CC4)CC3)nc12 (racemic) [Compound 19] |
| 93% | 1.7 nM | 97% | 16.1 nM | 71% | 10.9 nM | CC(C)Oc1c(-c2cn[nH]c2)ncn2nc(Nc3ccc(S(=O)(=O)c4cccc(N5CCC(CN6CCN(c7ccc8c(c7)CN(C7CCC(=O)NC7=O)C8=O)CC6)CC5)c4)cc3F)nc12 (racemic) [Compound 22] |
| 87% | 1.1 nM | 61% | 10.6 nM | 42% |  | CC(C)Oc1c(-c2cn[nH]c2)ncn2nc(Nc3ccc(S(=O)(=O)c4cccc(OC5CN(C6CCN(c7ccc8c(c7)CN(C7CCC(=O)NC7=O)C8=O)CC6)C5)c4)cc3F)nc12 (racemic) [Compound 23] |
| 81% | 0.2 nM | 41% |  | 21% |  | CC(C)Oc1c(-c2cn[nH]c2)ncn2nc(Nc3ccc(S(=O)(=O)c4cccc(CN5CCC(c6ccc7c(c6)n(C)c(=O)n7C6CCC(=O)NC6=O)CC5)c4)cc3F)nc12 (racemic) [Compound 25] |
| 6% |  | 2% |  | 0% |  | CC(C)Oc1c(-c2cn[nH]c2)ncn2nc(Nc3ccc(S(=O)(=O)N(C)CCCN4CCC(c5cccc6c5n(C)c(=O)n6C5CCC(=O)N(C)C5=O)CC4)cc3F)nc12 (racemic) [Compound 28] |
| 81% | 1.7 nM | 9% |  | 26% |  | CC(C)Oc1c(-c2cn[nH]c2)ncn2nc(Nc3ccc(S(=O)(=O)c4cccc(CC5CC(c6ccc7c(c6)n(C)c(=O)n7[C@H]6CCC(=O)NC6=O)C5)c4)cc3F)nc12 (mixture of isomers) [Compound 31, (3S)-3-[5-(3-{[3-(3-fluoro-4-{[8-isopropoxy-7-(1H-pyrazol-4-yl)-[1,2,4]triazolo[1,5-c]pyrimidin-2-yl]amino}benzenesulfonyl)phenyl]methyl}cyclobutyl)-3-methyl-2-oxo-1,3-benzodiazol-1-yl]piperidine-2,6-dione] |
| 89% | 78.1 nM | 62% | 396 nM | 62% | > 3000 nM | CC(C)Oc1c(-c2cn[nH]c2)ncn2nc(Nc3ccc(S(=O)(=O)c4cccc(CC5CC(c6ccc(C(=O)NC7CCC(=O)NC7=O)cc6)C5)c4)cc3F)nc12 (racemic) [Compound 32, rac-N-[(3R)-2,6-dioxopiperidin-3-yl]-4-(3-{[3-(3-fluoro-4-{[8-isopropoxy-7-(1H-pyrazol-4-yl)-[1,2,4]triazolo[1,5-c]pyrimidin-2-yl]amino}benzenesulfonyl)phenyl]methyl}cyclobutyl)benzamide] |
| 96% | 3.3 nM | 60% | 58.5 nM | 67% | 14.9 nM | CC(C)Oc1c(-c2cn[nH]c2)ncn2nc(Nc3ccc(S(=O)(=O)c4cccc(CN5CCN(c6ccc7c(N8CCC(=O)NC8=O)nn(C)c7c6)CC5C)c4)cc3F)nc12 (racemic) [Compound 39] |
| 94% | 3.9 nM | 57% | 28 nM | 41% |  | CC(C)Oc1c(-c2cn[nH]c2)ncn2nc(Nc3ccc(S(=O)(=O)c4cccc(CN5CCN(c6ccc7c(N8CCC(=O)NC8=O)nn(C)c7c6)C(C)C5)c4)cc3F)nc12 (racemic) [Compound 41] |
| 95% | 14.9 nM | 61% | 306 nM | 67% | 78.9 nM | CC(C)Oc1c(-c2cn[nH]c2)ncn2nc(Nc3ccc(S(=O)(=O)c4cccc(CN5CCN(c6ccc7c(N8CCC(=O)NC8=O)nn(C)c7c6)CC5C(C)C)c4)cc3F)nc12 (racemic) [Compound 42, rac-(R)-1-(6-(4-(3-((3-fluoro-4-((8-isopropoxy-7-(1H-pyrazol-4-yl)-[1,2,4]triazolo[1,5-c]pyrimidin-2-yl)amino)phenyl)sulfonyl)benzyl)-3-isopropylpiperazin-1-yl)-1-methyl-1H-indazol-3-yl)dihydropyrimidine-2,4(1H,3H)-dione] |
| 94% | 14.5 nM | 75% | 307 nM | 76% | 96.5 nM | CC(C)Oc1c(-c2cn[nH]c2)ncn2nc(Nc3ccc(S(=O)(=O)c4cccc(CN5CCN(c6ccc7c(N8CCC(=O)NC8=O)nn(C)c7c6)C(C(C)C)C5)c4)cc3F)nc12 (racemic) [Compound 43, rac-1-{6-[(2R)-4-{[3-(3-fluoro-4-{[8-isopropoxy-7-(1H-pyrazol-4-yl)-[1,2, 4]triazolo[1,5-c]pyrimidin-2-yl]amino}benzenesulfonyl)phenyl]methyl}-2-isopropylpiperazin-1-yl]-1-methylindazol-3-yl}-1,3-diazinane-2,4-dione] |
| 87% | 0.2 nM | 67% | 2.64 nM | 61% | 0.74 nM | CC(C)Oc1c(-c2cn[nH]c2)ncn2nc(Nc3ccc(S(=O)(=O)N(C)CCCN4CCC(c5ccc6c(c5)n(C)c(=O)n6C5CCC(=O)NC5=O)CC4)c4ccoc34)nc12 (racemic) [Compound 53] |
| 89% | 0.1 nM | 74% | 1.57 nM | 82% | 0.59 nM | CC(C)Oc1c(-c2cn[nH]c2)ncn2nc(Nc3ccc(S(=O)(=O)N(C)CCCN4CCC(c5ccc6c(c5)n(C)c(=O)n6C5CCC(=O)NC5=O)CC4)cc3)nc12 (racemic) [Compound 54] |
| 91% | 0.1 nM | 83% | 1.13 nM | 76% | 0.51 nM | Cc1c(S(=O)(=O)N(C)CCCN2CCC(c3ccc4c(c3)n(C)c(=O)n4C3CCC(=O)NC3=O)CC2)ccc(Nc2nc3c(OC(C)C)c(-c4cn[nH]c4)ncn3n2)c1F (racemic) [Compound 55, rac-(R)-N-(3-(4-(1-(2,6-dioxopiperidin-3-yl)-3-methyl-2-oxo-2,3-dihydro-1H-benzo[d]imidazol-5-yl)piperidin-1-yl)propyl)-3-fluoro-4-((8-isopropoxy-7-(1H-pyrazol-4-yl)-[1,2,4]triazolo[1,5-c]pyrimidin-2-yl)amino)-N,2-dimethylbenzenesulfonamide] |
| 93% |  | 90% | 0.48 nM | 82% | 0.23 nM | CC(C)Oc1c(-c2cn[nH]c2)ncn2nc(Nc3ccc(S(=O)(=O)N(C)CCCN4CCC(c5ccc6c(c5)n(C)c(=O)n6C5CCC(=O)NC5=O)CC4)c(F)c3F)nc12 (racemic) [Compound 56] |
